One data set deals with RIN-m5F cells. Kind of data set: DAG and cholesterol generation (3H-myristic acid, TLC) in RIN-m5F cells. It is filed as cell-based, rat. As to conditions: for level of DAG: versus vehicle control, glucose 16.7 mM. As for the experimental part:
FIGS. 5A-D show the effects of cytopiloyne on calcium mobilization, DAG generation and PKCa activation. (A) After Fura 2-AM loading, RIN-m5F cells were stimulated with 16.7 mM glucose (HG) and cytopiloyne at 7, 14 and 28 μM. Level of intracellular calcium, as shown by the 340/380 nm ratio, was detected using a fluorescence spectrophotometer. (B) RIN-m5F cells were pulsed with ^3H-myristic acid (5 Cim1^−1) for 16 hours. After washing, the cells were stimulated with glucose, cytopiloyne, PMA and glimepiride. Total lipids were separated on a silica thin layer plate. DAG and cholesterol were visualized with iodine vapor and identified by their standards. (C) RIN-m5F cells were incubated with vehicle (Mock), cytopiloyne (CP, 3, 7 and 14 μM), PMA (1 μM) and 16.7 mM (HG). Membrane or cytosolic proteins were subjected to Western blot with anti-PKCα and anti-Actin antibodies. (D) RIN-m5F cells were incubated with vehicle (Mock), cytopiloyne (CP 7 μM) and PMA (1 μM). After lysis, total lystaes were subjected to Western blot with anti-PKCα, anti-phospho-PKCα and anti-Actin antibodies.
RIN-m5F cells were incubated with ^3H-myristic acid ([…]) for 16 hours. After washing, the cells were treated with glucose, cytopiloyne, PMA and glimepiride. Total lipids were extracted as previously described. Radioactive DAG was separated on a silica thin layer plate with the first developer of ethylacetate: acetic acid: triethylpentane (9:2:5) and the second developer of hexane: diethylether: methanol: acetic acid (90:20:3:2). The spot of DAG was visualized with iodine vapor and identified by DAG standard.

Data set [1] is described as follows: Body weight of db/db mice during treatment. Type of data set: in vivo, mouse. As to the method: Tables 3 and 4 show the effects of cytopiloyne on body weight and food intake in db/db mice, respectively. Diabetic db/db mice at 6 to 8 weeks of age were allowed free access to food. These mice were treated with vehicle, glimepiride (GLM, 2.5 mg/kg/day), or cytopiloyne (CP, 0.5 and 2.5 mg/kg/day). Mean body weight and food intake of each group were measured from 0 to 6 weeks post-treatment. The number of mice (n) is indicated in parentheses.

For a further data set, the system named is STZ-treated C57BL mice. Put plainly: Insulin sensitizer test: oral dose before insulin injection in STZ-treated C57BL mice. The note with it: cytopiloyne 0.5 and 2.5, glimepiride 2.5, metformin 60 mgkg^−1 oral; insulin 2.5 IUkg^−1. Type of data set: in vivo, mouse. As to the method: FIGS. 3A-C show cytopiloyne-mediated insulin release depends on pancreatic islet cells. (A) Rat pancreatic islet cells were incubated with glucose-free KRB buffer containing vehicle or cytopiloyne at 1.5, 3, 7, 14, 28 and 42 μM (FIG. 3A-i). Similarly, rat pancreatic islet cells were incubated with KRB buffer containing vehicle, glimepiride (GLM, 10 μM) or cytopiloyne at 1.5, 3, 7, 14, 28 and 42 μM in the presence of 3.3 mM glucose (LG, FIG. 3A-ii) or 16.7 mM glucose (HG, FIG. 3A-iii). The insulin levels were determined using an insulin ELISA kit. The data presented as mean±SEM of 3 independent experiments. (B) Fed C57BL mice, which had already received an injection of STZ, were administered with an oral dose of vehicle, cytopiloyne (CP, 0.1, 0.5 and 2.5 mgkg^−1), and an intraperitoneal injection of insulin (Ins, 2.5 IUkg^−1). Blood sugar levels in the STZ-treated mice were determined using a glucometer. (C) C57BL mice, which had already received STZ, were orally administered with a single dose of vehicle, cytopiloyne (CP, 0.5 and 2.5 mgkg^−1), glimepiride (GLM, 2.5 mgkg^−1), or metformin (60 mgkg^−1), followed by an intraperitoneal injection with insulin (Ins). Blood sugar levels in the STZ-treated mice were determined using a glucometer. All the results from 3 independent experiments are expressed as mean±SEM, and P<0.05 was considered to be statistically significant (*). The number of mice (n) is indicated in parentheses.
To deplete pancreatic β-cells in mice, 6-week-old C57BL females (NLAC, Taipei, Taiwan) were intraperitoneally injected with STZ at 200 mgkg^−1. STZ-treated females with postprandial blood sugar over 500 mgdl^−1 were grouped. […] Blood glucose levels were monitored for 4 h. To distinguish sensitizer activity from releaser activity of cytopiloyne, STZ-treated C57BL mice were tube-fed with vehicle, glimepiride (2.5 mgkg^−1), metformin (60 mgkg^−1) or cytopiloyne (0.5 and 2.5 mgkg^−1) 1 h before insulin injection (2.5 IUkg^−1). Blood glucose levels in the mice were monitored from 0 to 4 h after insulin injection.

The subject of a further data set is db/db mice. Kind of data set: Blood glucose after a single oral dose in fed diabetic db/db mice. Type of data set: in vivo, mouse. The note with it: for postprandial blood glucose levels, effect in words: single dose, cytopiloyne 0.1, 0.5 and 2.5 mgkg^−1, glimepiride 2.5 mgkg^−1, diabetic db/db mice; for Blood glucose level: fed db/db mice. As for the experimental part:
After 0.5 h, the levels of postprandial blood sugar and insulin from the mice were monitored for additional 4 h. For continued administration, diabetic db/db males were grouped and tube-fed with vehicle, cytopiloyne (0.5 or 2.5 mgkg^−1 day^−1) or glimepiride (2.5 mg kg^−1 day^−1) for the indicated time, while levels of blood sugar, insulin, and glycosylated HbA1c, and glucose tolerance in these mice were determined. To evaluate the prophylaxis of diabetes, diabetes-free db/db mice at 4 weeks of age were tube-fed with vehicle or cytopiloyne (CP, 0.5 mgkg^−1), once a day, for 4 weeks. Unless indicated otherwise, the mice were fasted for 16 h, then Postprandial blood glucose and insulin in these mice were measured.
Glucose levels in mouse blood samples were measured using an Elite® glucometer (Bayer, Pittsburgh, Pa., USA). Insulin levels in blood samples or islet cell supernatants were determined by ELISA assays (Mercodia, Uppsala, Sweden). The levels of glycosylated HbA1c in mouse blood samples were measured using DCA 2000 analyzer (Bayer, Pittsburgh, Pa., USA).
Diabetic db/db mice aged 6 to 8 weeks were grouped, fasted for 12 h, allowed free access to food for 2 h, and removed from food. One half hour after food removal was set as time 0. Postprandial blood was collected from the tail vein of the mice, tube-fed with vehicle, glimepiride (GLM) at 2.5 mg/kg/day and cytopiloyne (CP) at 0.1, 0.5 and 2.5 mg/kg/day. Blood samples were collected at the indicated time intervals (0, 1, 2 and 4 h). The blood glucose levels were determined using a glucometer. The number of mice tested (n) is indicated in parentheses in the first column.

The next data set relates to adiponectin. Kind of data set: Real-time RT-PCR of adiponectin mRNA relative to GAPDH in 3T3-L1 cells. Type of data set: cell-based, mouse.
The mark [2] stands for this setting: single oral dose 2.5 mg/kg, 0 h.
Setting [3] is: single oral dose 2.5 mg/kg, 1 h.
[4] abbreviates: single oral dose 2.5 mg/kg, 2 h.
The mark [5] stands for this setting: single oral dose 2.5 mg/kg, 4 h.

For the compound `CC#CC#CC#CC#CCCC(CO)O[C@@H]1O[C@H](CO)[C@@H](O)[C@H](O)[C@H]1O` (stereo partly drawn) [cytopiloyne, 2-β-D-glucopyranosyloxy-1-hydroxytrideca-5,7,9,11-tetrayne], the level of cholesterol entry in the data set with RIN-m5F cells is “not cholesterol”. In the data set on RIN-m5F cells, the “level of DAG” value is “dose-dependently increased the level of DAG”. Also, the Mean body weight is 28.2 ± 3.0 g/mouse in data set [1] (0.5 mg/kg/day, week 0); 29.7 ± 3.1 g/mouse in data set [1] (0.5 mg/kg/day, week 1); 32.3 ± 3.3 g/mouse in data set [1] (0.5 mg/kg/day, week 2); 34.1 ± 2.9 g/mouse in data set [1] (0.5 mg/kg/day, week 4); 34.8 ± 2.8 g/mouse in data set [1] (0.5 mg/kg/day, week 6); 27.1 ± 2.4 g/mouse in data set [1] (2.5 mg/kg/day, week 0). Besides, the Mean body weight worked out at 30.0 ± 2.5 g/mouse in data set [1] (2.5 mg/kg/day, week 1); 31.7 ± 1.5 g/mouse in data set [1] (2.5 mg/kg/day, week 2); 33.3 ± 4.1 g/mouse in data set [1] (2.5 mg/kg/day, week 4); 36.4 ± 3.7 g/mouse in data set [1] (2.5 mg/kg/day, week 6). Also, the “body weight compared to control mice, in words” value in data set [1] (6-week-treatment) is given as “did not significantly increase body weight”. For the same compound, in the data set with STZ-treated C57BL mice, the “blood sugar lowering when dosed 60 min before insulin injection” value is listed as “little, if any, lowering effect on blood sugar”. Also, the “postprandial blood glucose levels, effect in words” value in the data set on db/db mice is on record as “significantly reduced postprandial blood glucose levels”. For the same compound, the Blood glucose level in the data set on db/db mice (single oral dose 0.1 mg/kg, 0 h) came to 373 ± 6 mg/dL; in the data set on db/db mice (single oral dose 0.1 mg/kg, 1 h) it was 267 ± 12 mg/dL; in the data set on db/db mice (single oral dose 0.1 mg/kg, 2 h), 204 ± 17 mg/dL; in the data set on db/db mice (single oral dose 0.1 mg/kg, 4 h), 158 ± 18 mg/dL; in the data set on db/db mice (single oral dose 0.5 mg/kg, 0 h), 369 ± 27 mg/dL; with db/db mice (single oral dose 0.5 mg/kg, 1 h), 214 ± 15 mg/dL. For the same compound, the Blood glucose level in the data set with db/db mice (single oral dose 0.5 mg/kg, 2 h) came to 163 ± 8 mg/dL; in the data set with db/db mice (single oral dose 0.5 mg/kg, 4 h), 132 ± 11 mg/dL; in the data set on db/db mice (setting [2]) it was 365 ± 9 mg/dL; in the data set with db/db mice (setting [3]), 207 ± 11 mg/dL; with db/db mice (setting [4]), 147 ± 12 mg/dL; in the data set with db/db mice (setting [5]) it was 129 ± 11 mg/dL. In addition, the adiponectin expression result with adiponectin (5, 25 and 50 μM, 3T3-L1 cells) is given as “slight reduction in adiponectin expression”.

In the case of `CCC1=C(C)CN(C(=O)NCCc2ccc(S(=O)(=O)NC(=O)N[C@H]3CC[C@H](C)CC3)cc2)C1=O` [glimepiride, reference compound], the “level of DAG” value with RIN-m5F cells is “significantly increased the level of DAG”. The Mean body weight in data set [1] (2.5 mg/kg/day, week 0) came to 26.9 ± 1.2 g/mouse; in data set [1] (2.5 mg/kg/day, week 1), 30.3 ± 2.7 g/mouse; in data set [1] (2.5 mg/kg/day, week 2) it was 30.7 ± 3.0 g/mouse; in data set [1] (2.5 mg/kg/day, week 4), 35.2 ± 1.8 g/mouse; in data set [1] (2.5 mg/kg/day, week 6), 36.3 ± 2.1 g/mouse. Also, the “blood sugar lowering when dosed 60 min before insulin injection” value in the data set on STZ-treated C57BL mice was “little, if any, lowering effect on blood sugar”. For the same compound, the “postprandial blood glucose levels, effect in words” value in the data set with db/db mice is on record as “significantly reduced postprandial blood glucose levels”. Also, the Blood glucose level came to 378 ± 9 mg/dL in the data set with db/db mice (setting [2]), 237 ± 16 mg/dL with db/db mice (setting [3]), 178 ± 20 mg/dL in the data set with db/db mice (setting [4]) and 187 ± 6 mg/dL with db/db mice (setting [5]). The “adiponectin expression level, times control levels” value in the data set with adiponectin (mouse, 8 days, 10 μM) was found to be 9 times.
